# Experimental data as given in ChEMBL document CHEMBL3991601, “The target landscape of clinical kinase drugs” (Science, 2017).
# Calls of active or inactive are those of the source. Cut-off read from the data, not from the text of the source, for most assays here: actives have a measured Kd and inactives only a lower limit.
# Target: Dual specificity mitogen-activated protein kinase kinase 2 (Homo sapiens, UniProt P36507)
# Note: in the data inactive means no Kd found up to 30 µM.
# Dual specificity mitogen-activated protein kinase kinase 2, sequence (P36507 whole entry): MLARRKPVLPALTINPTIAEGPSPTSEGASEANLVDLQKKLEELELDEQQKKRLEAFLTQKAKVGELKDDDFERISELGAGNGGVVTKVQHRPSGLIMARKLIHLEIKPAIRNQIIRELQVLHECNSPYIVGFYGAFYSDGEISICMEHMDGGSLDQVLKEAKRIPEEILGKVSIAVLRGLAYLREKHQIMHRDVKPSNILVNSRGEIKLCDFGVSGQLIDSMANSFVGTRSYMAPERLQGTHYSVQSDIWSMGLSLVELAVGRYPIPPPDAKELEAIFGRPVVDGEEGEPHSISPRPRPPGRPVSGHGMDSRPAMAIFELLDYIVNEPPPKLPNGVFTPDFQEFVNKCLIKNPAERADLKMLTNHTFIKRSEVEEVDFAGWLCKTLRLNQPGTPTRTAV
row,Compound,Kd
1,O=C(O)[C@]1(Cc2cccc(Nc3nccs3)n2)CC[C@@H](Oc2cccc(Cl)c2F)CC1 [MK-5108],> 30 µM (inactive)
2,C1=C/COCc2cc(ccc2OCCN2CCCC2)Nc2nccc(n2)-c2cccc(c2)COC/1 [PACRITINIB],> 30 µM (inactive)
3,Cc1ccc(-n2nc(C(C)(C)C)cc2NC(=O)NCc2cc(F)ccc2Oc2ccc3c(cnn3CCO)c2)cc1 [PEXMETINIB],> 30 µM (inactive)
4,CNC(=O)c1ccc(C)c(-n2c(C)cc(OCc3ccc(F)cc3F)c(Br)c2=O)c1 [PH-797804],> 30 µM (inactive)
5,C=CC(=O)N1CCC(Oc2cc3c(Nc4ccc(Cl)c(Cl)c4F)ncnc3cc2OC)CC1 [POZIOTINIB],> 30 µM (inactive)
6,CNC(=O)c1cc(Oc2ccc(NC(=O)Nc3ccc(Cl)c(C(F)(F)F)c3)c(F)c2)ccn1 [REGORAFENIB],> 30 µM (inactive)
7,CN(C)C(=O)c1cc2cnc(Nc3ccc(N4CCNCC4)cn3)nc2n1C1CCCC1 [RIBOCICLIB],> 30 µM (inactive)
8,COc1cc(OC)c(/C=C/S(=O)(=O)Cc2ccc(OC)c(NCC(=O)O)c2)c(OC)c1 [RIGOSERTIB],> 30 µM (inactive)
9,CNC(=O)CN1CCC(Oc2cc3c(Nc4cccc(Cl)c4F)ncnc3cc2OC)CC1 [SAPITINIB],> 30 µM (inactive)

# Target: T1, Mitogen-activated protein kinase 15 (Homo sapiens, UniProt Q8TD08)
# T1 sequence (Q8TD08 whole entry): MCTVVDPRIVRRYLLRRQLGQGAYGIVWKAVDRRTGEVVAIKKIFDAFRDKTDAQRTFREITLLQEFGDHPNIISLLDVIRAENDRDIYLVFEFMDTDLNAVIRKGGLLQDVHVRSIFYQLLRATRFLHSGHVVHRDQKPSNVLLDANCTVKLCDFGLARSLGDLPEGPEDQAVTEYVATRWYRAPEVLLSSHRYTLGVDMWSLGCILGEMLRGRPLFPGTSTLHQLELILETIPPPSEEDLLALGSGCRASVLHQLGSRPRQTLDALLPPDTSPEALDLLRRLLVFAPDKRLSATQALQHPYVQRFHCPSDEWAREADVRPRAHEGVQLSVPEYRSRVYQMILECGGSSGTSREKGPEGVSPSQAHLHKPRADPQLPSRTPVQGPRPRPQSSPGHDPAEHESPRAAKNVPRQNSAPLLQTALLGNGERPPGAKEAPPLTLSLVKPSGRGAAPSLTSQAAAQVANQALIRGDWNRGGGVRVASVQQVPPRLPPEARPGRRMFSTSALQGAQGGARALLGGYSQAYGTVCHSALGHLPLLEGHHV
row,Compound,Kd
1,O=C(O)[C@]1(Cc2cccc(Nc3nccs3)n2)CC[C@@H](Oc2cccc(Cl)c2F)CC1 [MK-5108],> 30 µM (inactive)
2,C1=C/COCc2cc(ccc2OCCN2CCCC2)Nc2nccc(n2)-c2cccc(c2)COC/1 [PACRITINIB],> 30 µM (inactive)
3,Cc1ccc(-n2nc(C(C)(C)C)cc2NC(=O)NCc2cc(F)ccc2Oc2ccc3c(cnn3CCO)c2)cc1 [PEXMETINIB],> 30 µM (inactive)
4,CNC(=O)c1ccc(C)c(-n2c(C)cc(OCc3ccc(F)cc3F)c(Br)c2=O)c1 [PH-797804],> 30 µM (inactive)
5,C=CC(=O)N1CCC(Oc2cc3c(Nc4ccc(Cl)c(Cl)c4F)ncnc3cc2OC)CC1 [POZIOTINIB],> 30 µM (inactive)
6,CNC(=O)c1cc(Oc2ccc(NC(=O)Nc3ccc(Cl)c(C(F)(F)F)c3)c(F)c2)ccn1 [REGORAFENIB],> 30 µM (inactive)
7,CN(C)C(=O)c1cc2cnc(Nc3ccc(N4CCNCC4)cn3)nc2n1C1CCCC1 [RIBOCICLIB],> 30 µM (inactive)
8,COc1cc(OC)c(/C=C/S(=O)(=O)Cc2ccc(OC)c(NCC(=O)O)c2)c(OC)c1 [RIGOSERTIB],> 30 µM (inactive)
9,CNC(=O)CN1CCC(Oc2cc3c(Nc4cccc(Cl)c4F)ncnc3cc2OC)CC1 [SAPITINIB],> 30 µM (inactive)

# Target: Serine/threonine-protein kinase pim-1 (Homo sapiens, UniProt P11309)
# Sequence (P11309 whole entry): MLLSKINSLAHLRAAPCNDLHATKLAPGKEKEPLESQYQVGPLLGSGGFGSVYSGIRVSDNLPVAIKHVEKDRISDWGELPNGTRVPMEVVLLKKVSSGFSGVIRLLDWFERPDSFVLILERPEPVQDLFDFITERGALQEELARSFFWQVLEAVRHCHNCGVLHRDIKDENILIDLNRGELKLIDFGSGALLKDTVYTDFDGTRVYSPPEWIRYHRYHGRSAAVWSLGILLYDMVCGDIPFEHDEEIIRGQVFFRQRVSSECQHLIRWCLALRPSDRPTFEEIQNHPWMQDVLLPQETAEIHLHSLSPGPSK
row,Compound,Kd
1,O=C(O)[C@]1(Cc2cccc(Nc3nccs3)n2)CC[C@@H](Oc2cccc(Cl)c2F)CC1 [MK-5108],> 30 µM (inactive)
2,C1=C/COCc2cc(ccc2OCCN2CCCC2)Nc2nccc(n2)-c2cccc(c2)COC/1 [PACRITINIB],> 30 µM (inactive)
3,Cc1ccc(-n2nc(C(C)(C)C)cc2NC(=O)NCc2cc(F)ccc2Oc2ccc3c(cnn3CCO)c2)cc1 [PEXMETINIB],> 30 µM (inactive)
4,CNC(=O)c1ccc(C)c(-n2c(C)cc(OCc3ccc(F)cc3F)c(Br)c2=O)c1 [PH-797804],> 30 µM (inactive)
5,C=CC(=O)N1CCC(Oc2cc3c(Nc4ccc(Cl)c(Cl)c4F)ncnc3cc2OC)CC1 [POZIOTINIB],> 30 µM (inactive)
6,CNC(=O)c1cc(Oc2ccc(NC(=O)Nc3ccc(Cl)c(C(F)(F)F)c3)c(F)c2)ccn1 [REGORAFENIB],> 30 µM (inactive)
7,CN(C)C(=O)c1cc2cnc(Nc3ccc(N4CCNCC4)cn3)nc2n1C1CCCC1 [RIBOCICLIB],> 30 µM (inactive)
8,COc1cc(OC)c(/C=C/S(=O)(=O)Cc2ccc(OC)c(NCC(=O)O)c2)c(OC)c1 [RIGOSERTIB],> 30 µM (inactive)
9,CNC(=O)CN1CCC(Oc2cc3c(Nc4cccc(Cl)c4F)ncnc3cc2OC)CC1 [SAPITINIB],> 30 µM (inactive)

# Target: T2, Breakpoint cluster region protein (Homo sapiens, UniProt P11274)
# T2 sequence (P11274 whole entry): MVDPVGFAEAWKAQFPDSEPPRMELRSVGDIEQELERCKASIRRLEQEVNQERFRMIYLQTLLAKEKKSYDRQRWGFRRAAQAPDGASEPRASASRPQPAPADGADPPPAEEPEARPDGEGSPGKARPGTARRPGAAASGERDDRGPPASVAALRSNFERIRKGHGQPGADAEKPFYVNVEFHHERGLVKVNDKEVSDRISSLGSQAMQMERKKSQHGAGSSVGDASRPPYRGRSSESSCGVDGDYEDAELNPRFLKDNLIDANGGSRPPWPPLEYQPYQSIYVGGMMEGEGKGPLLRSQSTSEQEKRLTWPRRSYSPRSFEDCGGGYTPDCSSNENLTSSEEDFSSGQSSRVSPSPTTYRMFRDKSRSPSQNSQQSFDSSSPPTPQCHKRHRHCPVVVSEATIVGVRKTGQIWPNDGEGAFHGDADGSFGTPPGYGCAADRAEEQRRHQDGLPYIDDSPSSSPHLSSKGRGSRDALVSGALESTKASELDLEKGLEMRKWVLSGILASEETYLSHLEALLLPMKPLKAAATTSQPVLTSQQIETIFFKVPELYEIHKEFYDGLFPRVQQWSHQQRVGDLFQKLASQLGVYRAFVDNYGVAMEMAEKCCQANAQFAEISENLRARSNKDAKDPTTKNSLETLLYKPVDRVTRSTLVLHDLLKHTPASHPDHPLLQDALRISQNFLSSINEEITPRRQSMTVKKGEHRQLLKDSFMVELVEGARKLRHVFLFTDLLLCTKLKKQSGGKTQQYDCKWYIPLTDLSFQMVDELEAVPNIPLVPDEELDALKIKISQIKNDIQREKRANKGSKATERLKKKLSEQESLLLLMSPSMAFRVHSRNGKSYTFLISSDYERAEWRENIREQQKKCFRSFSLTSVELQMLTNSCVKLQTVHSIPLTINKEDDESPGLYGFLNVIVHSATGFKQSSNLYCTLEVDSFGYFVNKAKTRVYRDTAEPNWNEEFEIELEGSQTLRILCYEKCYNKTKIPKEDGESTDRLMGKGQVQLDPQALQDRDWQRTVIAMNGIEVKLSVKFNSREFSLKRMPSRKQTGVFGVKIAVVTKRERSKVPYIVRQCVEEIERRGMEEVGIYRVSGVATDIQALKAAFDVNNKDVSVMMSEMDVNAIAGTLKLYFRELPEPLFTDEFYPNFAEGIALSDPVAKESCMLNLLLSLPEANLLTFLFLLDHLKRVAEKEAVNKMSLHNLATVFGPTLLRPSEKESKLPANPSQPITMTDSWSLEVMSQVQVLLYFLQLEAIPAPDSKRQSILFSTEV
row,Compound,Kd
1,O=C(O)[C@]1(Cc2cccc(Nc3nccs3)n2)CC[C@@H](Oc2cccc(Cl)c2F)CC1 [MK-5108],0.011 µM (active)
2,C1=C/COCc2cc(ccc2OCCN2CCCC2)Nc2nccc(n2)-c2cccc(c2)COC/1 [PACRITINIB],> 30 µM (inactive)
3,Cc1ccc(-n2nc(C(C)(C)C)cc2NC(=O)NCc2cc(F)ccc2Oc2ccc3c(cnn3CCO)c2)cc1 [PEXMETINIB],0.681 µM (active)
4,CNC(=O)c1ccc(C)c(-n2c(C)cc(OCc3ccc(F)cc3F)c(Br)c2=O)c1 [PH-797804],> 30 µM (inactive)
5,C=CC(=O)N1CCC(Oc2cc3c(Nc4ccc(Cl)c(Cl)c4F)ncnc3cc2OC)CC1 [POZIOTINIB],> 30 µM (inactive)
6,CNC(=O)c1cc(Oc2ccc(NC(=O)Nc3ccc(Cl)c(C(F)(F)F)c3)c(F)c2)ccn1 [REGORAFENIB],0.739 µM (active)
7,CN(C)C(=O)c1cc2cnc(Nc3ccc(N4CCNCC4)cn3)nc2n1C1CCCC1 [RIBOCICLIB],> 30 µM (inactive)
8,COc1cc(OC)c(/C=C/S(=O)(=O)Cc2ccc(OC)c(NCC(=O)O)c2)c(OC)c1 [RIGOSERTIB],> 30 µM (inactive)
9,CNC(=O)CN1CCC(Oc2cc3c(Nc4cccc(Cl)c4F)ncnc3cc2OC)CC1 [SAPITINIB],> 30 µM (inactive)

# Target: 5'-AMP-activated protein kinase catalytic subunit alpha-1 (Homo sapiens, UniProt Q13131)
# Sequence (Q13131 whole entry): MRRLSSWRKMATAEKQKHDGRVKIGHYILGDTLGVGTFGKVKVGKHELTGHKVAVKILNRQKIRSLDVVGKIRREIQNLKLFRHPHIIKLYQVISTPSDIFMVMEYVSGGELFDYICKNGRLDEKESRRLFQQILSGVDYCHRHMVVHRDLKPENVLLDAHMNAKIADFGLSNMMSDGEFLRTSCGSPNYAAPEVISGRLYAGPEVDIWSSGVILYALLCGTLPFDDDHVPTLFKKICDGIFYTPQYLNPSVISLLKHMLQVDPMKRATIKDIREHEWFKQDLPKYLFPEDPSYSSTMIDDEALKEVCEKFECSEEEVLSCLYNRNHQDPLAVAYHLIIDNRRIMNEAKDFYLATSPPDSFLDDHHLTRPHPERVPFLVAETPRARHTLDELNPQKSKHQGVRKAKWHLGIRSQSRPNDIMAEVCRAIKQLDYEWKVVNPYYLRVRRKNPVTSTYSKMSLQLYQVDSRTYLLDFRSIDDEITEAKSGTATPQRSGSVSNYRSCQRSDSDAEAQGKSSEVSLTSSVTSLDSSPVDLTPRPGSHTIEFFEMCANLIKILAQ
row,Compound,Kd
1,O=C(O)[C@]1(Cc2cccc(Nc3nccs3)n2)CC[C@@H](Oc2cccc(Cl)c2F)CC1 [MK-5108],> 30 µM (inactive)
2,C1=C/COCc2cc(ccc2OCCN2CCCC2)Nc2nccc(n2)-c2cccc(c2)COC/1 [PACRITINIB],> 30 µM (inactive)
3,Cc1ccc(-n2nc(C(C)(C)C)cc2NC(=O)NCc2cc(F)ccc2Oc2ccc3c(cnn3CCO)c2)cc1 [PEXMETINIB],> 30 µM (inactive)
4,CNC(=O)c1ccc(C)c(-n2c(C)cc(OCc3ccc(F)cc3F)c(Br)c2=O)c1 [PH-797804],> 30 µM (inactive)
5,C=CC(=O)N1CCC(Oc2cc3c(Nc4ccc(Cl)c(Cl)c4F)ncnc3cc2OC)CC1 [POZIOTINIB],> 30 µM (inactive)
6,CNC(=O)c1cc(Oc2ccc(NC(=O)Nc3ccc(Cl)c(C(F)(F)F)c3)c(F)c2)ccn1 [REGORAFENIB],> 30 µM (inactive)
7,CN(C)C(=O)c1cc2cnc(Nc3ccc(N4CCNCC4)cn3)nc2n1C1CCCC1 [RIBOCICLIB],> 30 µM (inactive)
8,COc1cc(OC)c(/C=C/S(=O)(=O)Cc2ccc(OC)c(NCC(=O)O)c2)c(OC)c1 [RIGOSERTIB],> 30 µM (inactive)
9,CNC(=O)CN1CCC(Oc2cc3c(Nc4cccc(Cl)c4F)ncnc3cc2OC)CC1 [SAPITINIB],> 30 µM (inactive)

# Target: Protein-tyrosine kinase 2-beta (Homo sapiens, UniProt Q14289)
# Sequence (Q14289 whole entry): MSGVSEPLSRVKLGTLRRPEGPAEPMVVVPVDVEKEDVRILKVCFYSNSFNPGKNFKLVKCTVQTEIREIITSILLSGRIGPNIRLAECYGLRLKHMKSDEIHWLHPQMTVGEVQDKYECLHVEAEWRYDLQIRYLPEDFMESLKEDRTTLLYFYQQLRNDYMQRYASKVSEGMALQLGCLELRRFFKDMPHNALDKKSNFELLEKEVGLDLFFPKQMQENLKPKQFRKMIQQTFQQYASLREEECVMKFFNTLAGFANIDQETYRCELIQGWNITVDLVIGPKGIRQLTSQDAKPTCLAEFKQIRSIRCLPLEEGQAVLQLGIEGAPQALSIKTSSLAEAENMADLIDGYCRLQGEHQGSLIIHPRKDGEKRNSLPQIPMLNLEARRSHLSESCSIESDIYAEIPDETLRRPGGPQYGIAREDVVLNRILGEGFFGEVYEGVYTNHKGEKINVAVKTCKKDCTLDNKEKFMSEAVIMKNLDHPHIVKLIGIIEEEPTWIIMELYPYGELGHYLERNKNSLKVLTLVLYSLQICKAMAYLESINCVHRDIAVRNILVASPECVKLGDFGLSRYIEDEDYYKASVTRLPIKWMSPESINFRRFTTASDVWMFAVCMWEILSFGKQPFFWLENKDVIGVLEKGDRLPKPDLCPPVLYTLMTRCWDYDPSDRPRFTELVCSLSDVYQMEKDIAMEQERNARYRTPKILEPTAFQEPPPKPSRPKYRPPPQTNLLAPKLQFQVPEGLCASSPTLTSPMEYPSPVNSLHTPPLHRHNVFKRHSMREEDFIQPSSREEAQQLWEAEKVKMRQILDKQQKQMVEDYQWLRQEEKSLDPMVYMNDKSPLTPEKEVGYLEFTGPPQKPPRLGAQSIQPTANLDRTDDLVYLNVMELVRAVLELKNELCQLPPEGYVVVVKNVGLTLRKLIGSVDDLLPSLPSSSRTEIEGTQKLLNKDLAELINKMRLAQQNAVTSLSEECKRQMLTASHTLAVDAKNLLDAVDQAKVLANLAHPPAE
row,Compound,Kd
1,O=C(O)[C@]1(Cc2cccc(Nc3nccs3)n2)CC[C@@H](Oc2cccc(Cl)c2F)CC1 [MK-5108],0.343 µM (active)
2,C1=C/COCc2cc(ccc2OCCN2CCCC2)Nc2nccc(n2)-c2cccc(c2)COC/1 [PACRITINIB],> 30 µM (inactive)
3,Cc1ccc(-n2nc(C(C)(C)C)cc2NC(=O)NCc2cc(F)ccc2Oc2ccc3c(cnn3CCO)c2)cc1 [PEXMETINIB],30.4 µM (active)
4,CNC(=O)c1ccc(C)c(-n2c(C)cc(OCc3ccc(F)cc3F)c(Br)c2=O)c1 [PH-797804],> 30 µM (inactive)
5,C=CC(=O)N1CCC(Oc2cc3c(Nc4ccc(Cl)c(Cl)c4F)ncnc3cc2OC)CC1 [POZIOTINIB],> 30 µM (inactive)
6,CNC(=O)c1cc(Oc2ccc(NC(=O)Nc3ccc(Cl)c(C(F)(F)F)c3)c(F)c2)ccn1 [REGORAFENIB],> 30 µM (inactive)
7,CN(C)C(=O)c1cc2cnc(Nc3ccc(N4CCNCC4)cn3)nc2n1C1CCCC1 [RIBOCICLIB],> 30 µM (inactive)
8,COc1cc(OC)c(/C=C/S(=O)(=O)Cc2ccc(OC)c(NCC(=O)O)c2)c(OC)c1 [RIGOSERTIB],> 30 µM (inactive)
9,CNC(=O)CN1CCC(Oc2cc3c(Nc4cccc(Cl)c4F)ncnc3cc2OC)CC1 [SAPITINIB],> 30 µM (inactive)

# Target: Activated CDC42 kinase 1 (Homo sapiens, UniProt Q07912)
# Sequence (Q07912 whole entry): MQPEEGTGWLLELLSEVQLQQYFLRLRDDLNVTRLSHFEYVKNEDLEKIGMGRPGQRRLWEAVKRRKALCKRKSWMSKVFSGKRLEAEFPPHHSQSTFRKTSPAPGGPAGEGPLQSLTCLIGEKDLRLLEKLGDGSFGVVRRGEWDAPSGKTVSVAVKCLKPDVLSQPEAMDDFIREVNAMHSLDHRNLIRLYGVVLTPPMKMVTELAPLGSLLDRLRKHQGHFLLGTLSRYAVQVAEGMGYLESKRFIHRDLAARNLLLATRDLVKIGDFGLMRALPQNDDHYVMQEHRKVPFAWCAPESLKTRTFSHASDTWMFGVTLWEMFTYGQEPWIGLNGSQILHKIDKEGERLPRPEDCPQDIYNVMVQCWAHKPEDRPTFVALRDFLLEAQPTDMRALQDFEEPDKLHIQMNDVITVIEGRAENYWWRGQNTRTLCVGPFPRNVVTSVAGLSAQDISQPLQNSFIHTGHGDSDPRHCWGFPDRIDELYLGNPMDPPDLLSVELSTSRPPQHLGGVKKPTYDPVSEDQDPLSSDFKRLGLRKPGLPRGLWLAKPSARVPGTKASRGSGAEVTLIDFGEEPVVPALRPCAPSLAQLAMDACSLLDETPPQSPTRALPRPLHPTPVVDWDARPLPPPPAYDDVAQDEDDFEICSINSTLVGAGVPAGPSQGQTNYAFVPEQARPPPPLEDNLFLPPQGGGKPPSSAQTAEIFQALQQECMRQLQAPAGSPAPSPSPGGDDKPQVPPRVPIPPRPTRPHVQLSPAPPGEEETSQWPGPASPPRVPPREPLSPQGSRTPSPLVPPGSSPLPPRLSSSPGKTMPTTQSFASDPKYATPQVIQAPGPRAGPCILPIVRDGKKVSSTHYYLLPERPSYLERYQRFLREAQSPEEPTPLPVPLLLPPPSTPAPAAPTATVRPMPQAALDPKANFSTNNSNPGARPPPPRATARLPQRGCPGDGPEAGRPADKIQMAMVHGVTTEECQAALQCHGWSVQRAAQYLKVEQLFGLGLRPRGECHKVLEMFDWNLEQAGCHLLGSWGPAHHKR
row,Compound,Kd
1,O=C(O)[C@]1(Cc2cccc(Nc3nccs3)n2)CC[C@@H](Oc2cccc(Cl)c2F)CC1 [MK-5108],0.473 µM (active)
2,C1=C/COCc2cc(ccc2OCCN2CCCC2)Nc2nccc(n2)-c2cccc(c2)COC/1 [PACRITINIB],9.33 µM (active)
3,Cc1ccc(-n2nc(C(C)(C)C)cc2NC(=O)NCc2cc(F)ccc2Oc2ccc3c(cnn3CCO)c2)cc1 [PEXMETINIB],> 30 µM (inactive)
4,CNC(=O)c1ccc(C)c(-n2c(C)cc(OCc3ccc(F)cc3F)c(Br)c2=O)c1 [PH-797804],> 30 µM (inactive)
5,C=CC(=O)N1CCC(Oc2cc3c(Nc4ccc(Cl)c(Cl)c4F)ncnc3cc2OC)CC1 [POZIOTINIB],> 30 µM (inactive)
6,CNC(=O)c1cc(Oc2ccc(NC(=O)Nc3ccc(Cl)c(C(F)(F)F)c3)c(F)c2)ccn1 [REGORAFENIB],> 30 µM (inactive)
7,CN(C)C(=O)c1cc2cnc(Nc3ccc(N4CCNCC4)cn3)nc2n1C1CCCC1 [RIBOCICLIB],> 30 µM (inactive)
8,COc1cc(OC)c(/C=C/S(=O)(=O)Cc2ccc(OC)c(NCC(=O)O)c2)c(OC)c1 [RIGOSERTIB],> 30 µM (inactive)
9,CNC(=O)CN1CCC(Oc2cc3c(Nc4cccc(Cl)c4F)ncnc3cc2OC)CC1 [SAPITINIB],> 30 µM (inactive)
